For data set [1], the system named is thrombin time (TT), plasma. The experiment in a line: Anticoagulant activity, thrombin time (TT) in human plasma. To be noted: human platelet-depleted plasma, 2 min at 37° C. It is filed as biochemical, man. Here is the method: (§1) In the presence of a standard quantity of thrombin or of calcium thromboplastin a normal plasma coagulates in a defined and constant time, called thrombin time (TT) and prothrombin time (PT) respectively. Venous blood is collected at the elbow bend into a trisodium citrate (0.109M) solution. A plasma depleted in platelets is obtained by centrifuging the blood samples (3000 g, 15 minutes). The thrombin time is obtained with the Thrombin Prest (Stago) reagent and the prothrombin time with the Neoplastine (Stago) reagent. They are determined automatically by employing an ST4 (Stago) coagulometer. […] In these conditions the TT obtained in the control plasma is of the order of 20 seconds in man, and PT of the order of 12 seconds. The activity of an inhibitor is evaluated by its ability to lengthen these times when compared with the control. In these conditions the compounds of the invention permit a lengthening of the thrombin time and of the prothrombin time of 50-fold and more. The effect of the inhibitors is measured and the concentration which doubles the coagulation time (CTT2 for the thrombin time and CPT2 for the prothrombin time) is determined.

Data set [2] relates to prothrombin time (PT), plasma. The experiment in a line: Anticoagulant activity, prothrombin time (PT) in human plasma. The data set is classed as biochemical, man. To be noted: human platelet-depleted plasma, 2 min at 37° C., calcium thromboplastin. As to the method:
as §1

Another data set addresses T1, human thrombin (Homo sapiens, UniProt P00734).
T1 construct: human thrombin (Sigma, specific activity 3220 NIHU/mg); purchased Sigma
Put plainly: Inhibition of thrombin (fibrinogen substrate, fibrin formation at 405 nm). The data set is classed as biochemical. The note with it: for pIC50: thrombin 0.7 nM, preincubation 20° C. 10 minutes, fibrinogen, read-out: CI50 Thrombin. Here is the method: In order to evaluate in vitro the inhibiting activity of the boro-Arginic products on human thrombin (Sigma, specific activity 3220 NIHU/mg), purified human fibrinogen ([…], Enzyme Research Laboratories) was added to a given quantity of thrombin (0.7 nM) previously incubated with or without the inhibitor to be tested (20° C., 10 minutes).
(§2) Inhibitors, enzymes and substrates are diluted in the same buffer ([…] phosphate buffer, pH 7.4, containing 0.12M of sodium chloride and 0.05% of bovine albumin serum) and then distributed into a microplate made of polystyrene in a volume of 50 1.
(§3) The fibrin formed by the thrombin or the para-nitroanilide released by the action of the serine protease are measured spectrophotometrically at 405 nm after 5 or 30 minutes' reaction at 20° C. respectively.

Another data set concerns the target T2, purified human plasmin (Homo sapiens, UniProt P00747).
T2 construct: purified human plasmin (2 nM, Stago); purchased Stago
The experiment in a line: Inhibition of plasmin (pNA substrate S 2403). The data set is classed as biochemical. The note with it: enzyme 2 nM, 30 minutes at 20° C.; read-out: CI50 Plasmin. Here is the method:
(§4) In order to evaluate in vitro the selectivity of these products in respect of different serine proteases of fibrinolysis and coagulation, the same protocol is applied to purified human plasmin (2 nM, Stago), to purified human activated protein C (2 nM, Stago), to purified human activated factor X (2 nM, Calbiochem), to the tissue activator of plasminogen (2 nM, Calbiochem), to purified human urokinase (2 nM, Choay), to purified human plasma kallikrein (2 nM, Calbiochem), using as substrates different peptide para-nitroanilides: <Glu-Phe-Lys-pNA (0.50mM, S 2403, Kabi) for plasmin, N-Cbo-Arg-Gly-Arg-pNA (0.39 mM, S 2765, Kabi) for the factor Xa<Glu-Pro-Arg-pNA (0.52 mM, S 2366, Kabi) for activated protein C, H-D-Pro-Phe-Arg-pNA (0.45 mM, S 2302, Kabi) for kallikrein, H-(D)-Ile-Pro-Arg-pNA (0.48 mM, S 2288, Kabi) for the tissue activator of plasminogen and <Glu-Gly-Arg-pNA (0.56 mM, S 2444, Kabi) for urokinase.
as §2, §3

Data set [3] has as its target T3, tissue activator of plasminogen (Homo sapiens, UniProt P00750).
T3 construct: purchased Calbiochem
Put plainly: Inhibition of tPA (pNA substrate S 2288). It is filed as biochemical. To be noted: enzyme 2 nM, 30 minutes at 20° C.; read-out: CI50 tPA. As to the method: as §4, §2, §3

Another data set addresses T4, purified human urokinase (Homo sapiens, UniProt P00749).
T4 construct: purchased Choay
The experiment in a line: Inhibition of urokinase (pNA substrate S 2444). It is filed as biochemical. To be noted: enzyme 2 nM, 30 minutes at 20° C.; read-out: CI50 Urokinase. As to the method:
as §4, §2, §3

Data set [4] has as its target T5, purified human activated factor X (Homo sapiens, UniProt P00742).
T5 construct: purchased Calbiochem
Put plainly: Inhibition of factor Xa (pNA substrate S 2765). The data set is classed as biochemical. To be noted: enzyme 2 nM, 30 minutes at 20° C.; read-out: CI50 FXa. Here is the method:
as §4, §2, §3

In data set [5] the target is T6, purified human plasma kallikrein (Homo sapiens, UniProt P03952).
T6 construct: purified human plasma kallikrein (2 nM, Calbiochem); purchased Calbiochem
T6 sequence (P03952 391-638 limits assumed): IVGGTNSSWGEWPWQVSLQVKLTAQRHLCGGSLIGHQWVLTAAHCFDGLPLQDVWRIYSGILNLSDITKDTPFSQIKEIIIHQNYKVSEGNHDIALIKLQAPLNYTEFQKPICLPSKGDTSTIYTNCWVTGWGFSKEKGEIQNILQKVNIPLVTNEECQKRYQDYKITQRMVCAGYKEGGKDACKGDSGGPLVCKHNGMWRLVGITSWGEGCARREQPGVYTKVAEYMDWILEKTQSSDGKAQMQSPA
T6 sequence (P03952 20-390 partner limits assumed): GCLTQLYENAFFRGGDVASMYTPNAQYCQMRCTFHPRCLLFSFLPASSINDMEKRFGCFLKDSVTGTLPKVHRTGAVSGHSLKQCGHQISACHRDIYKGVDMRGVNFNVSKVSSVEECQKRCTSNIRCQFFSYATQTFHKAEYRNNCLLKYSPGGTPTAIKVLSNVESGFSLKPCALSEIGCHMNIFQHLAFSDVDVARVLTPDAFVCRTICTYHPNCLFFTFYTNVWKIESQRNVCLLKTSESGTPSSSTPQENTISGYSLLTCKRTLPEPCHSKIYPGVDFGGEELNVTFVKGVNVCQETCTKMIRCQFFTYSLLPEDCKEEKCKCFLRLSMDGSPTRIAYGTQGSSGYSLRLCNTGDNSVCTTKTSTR
The experiment in a line: Inhibition of plasma kallikrein (pNA substrate S 2302). The data set is classed as biochemical. To be noted: enzyme 2 nM, 30 minutes at 20° C.; read-out: CI50 Kalli. As to the method: as §4, §2, §3

The target in data set [6] is T7, purified human activated protein C (Homo sapiens, UniProt P04070).
T7 construct: purchased Stago
T7 sequence (P04070 212-450 limits assumed): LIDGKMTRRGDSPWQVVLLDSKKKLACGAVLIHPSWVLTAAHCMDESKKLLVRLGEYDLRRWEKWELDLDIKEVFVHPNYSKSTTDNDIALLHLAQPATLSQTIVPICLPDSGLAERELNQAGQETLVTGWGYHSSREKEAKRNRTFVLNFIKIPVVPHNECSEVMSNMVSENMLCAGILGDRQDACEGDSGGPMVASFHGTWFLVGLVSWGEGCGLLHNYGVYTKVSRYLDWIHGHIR
T7 sequence (P04070 43-197 partner limits assumed): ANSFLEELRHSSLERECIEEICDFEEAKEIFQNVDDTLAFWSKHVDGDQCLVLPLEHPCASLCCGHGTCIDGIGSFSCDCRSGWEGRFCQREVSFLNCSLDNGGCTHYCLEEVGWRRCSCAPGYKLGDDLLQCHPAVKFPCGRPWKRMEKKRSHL
The experiment in a line: Inhibition of activated protein C (pNA substrate S 2366). It is filed as biochemical. To be noted: enzyme 2 nM, 30 minutes at 20° C.; read-out: CI50 PCa. Here is the method:
as §4, §2, §3

Data set [7] concerns activated cephalin time (ACT). Put plainly: Anticoagulant activity ex vivo, i.v. route in the dog (ACT). The note with it: for ACT increase index: 0.5 mg/kg i.v. From the text: The dogs are left breathing freely.
For data set [8], the system named is platelets. The experiment in a line: Number of platelets after i.v. administration in the dog. To be noted: 0.25 mg/kg i.v.
Description: Fasted dogs are anaesthetized with pentobarbital (30 mg/kg, i.v.). A femoral artery and a saphenous vein are exposed and catheterized. The dogs are left breathing freely.
The subject of data set [9] is activated cephalin time (ACT). Put plainly: Anticoagulant activity ex vivo, i.v. route in the rat (ACT). To be noted: 0.25 mg/kg i.v. As to the method: OFA rats, fasted or not, are anaesthetized with pentobarbital (60 mg/kg, i.p.). The carotid artery and the jugular vein are exposed and catheterized. The catheters are purged with citrated physiological saline (1/40). After installation of the catheters a sampling of 1.5 cm^3 of arterial blood is performed on 0.109 M citrate (1/9).
30 minutes later the product to be tested is administered i.v. in a volume of 1 ml.
Arterial samplings (1.5 ml) are then performed at 1 minute 30, 5, 15, 30 and 60 minutes.
At each sampling 1.5 ml of citrated physiological saline is reinjected into the animal via the carotid.
The tubes of blood are centrifuged for 5 minutes at 3000 g (preparation of the plasma).
100 1 of plasma are incubated with 100 1 of activated cephalin. The time of appearance of the coagulation phenomenon is measured after addition of 100 1 of calcium.
The results are reproduced in the following table and show the indices of increase in the coagulation time.

Another data set has as its system thrombin time. The experiment in a line: Anticoagulant activity ex vivo, oral route in the dog (thrombin time). To be noted: 2.5 mg/kg oral. Here is the method:
(§5) After a blood sample has been taken, the products are administered orally. At specified times after the treatment the blood is sampled intravenously. The plasma is prepared, the platelets are counted and the thrombin time test is carried out.
(§6) The activity is durable (4 hours).

The subject of data set [10] is platelets. The experiment in a line: Number of platelets after oral administration in the dog. The data set is classed as in vivo. To be noted: 2.5 mg/kg oral. As to the method: as §5, §6

pIC50: −log10 of the molar value. Where only a bound is given, the exact number is not on record here.

T3 sequence (P00750 23-562 limits assumed): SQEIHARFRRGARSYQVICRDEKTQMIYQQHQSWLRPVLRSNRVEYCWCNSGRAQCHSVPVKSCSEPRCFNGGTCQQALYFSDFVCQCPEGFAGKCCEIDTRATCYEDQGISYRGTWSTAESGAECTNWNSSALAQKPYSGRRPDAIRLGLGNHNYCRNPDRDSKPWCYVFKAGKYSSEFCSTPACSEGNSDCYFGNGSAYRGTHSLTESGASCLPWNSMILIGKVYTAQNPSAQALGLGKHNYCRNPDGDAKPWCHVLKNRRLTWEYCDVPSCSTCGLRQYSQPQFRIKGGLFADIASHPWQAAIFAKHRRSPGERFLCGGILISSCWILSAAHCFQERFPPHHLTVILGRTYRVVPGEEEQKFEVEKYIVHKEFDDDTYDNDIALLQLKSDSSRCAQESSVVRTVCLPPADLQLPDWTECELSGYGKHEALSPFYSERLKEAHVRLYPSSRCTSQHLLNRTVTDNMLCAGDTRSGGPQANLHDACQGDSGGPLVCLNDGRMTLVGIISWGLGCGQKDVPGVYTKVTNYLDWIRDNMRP
T2 sequence (P00747 581-810 limits assumed): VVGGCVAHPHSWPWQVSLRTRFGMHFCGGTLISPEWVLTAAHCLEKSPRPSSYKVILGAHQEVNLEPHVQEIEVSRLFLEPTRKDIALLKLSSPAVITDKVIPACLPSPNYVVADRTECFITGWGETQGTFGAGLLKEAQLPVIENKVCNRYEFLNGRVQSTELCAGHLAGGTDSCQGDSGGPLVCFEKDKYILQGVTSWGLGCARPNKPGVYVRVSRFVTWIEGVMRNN
T2 sequence (P00747 97-580 partner limits assumed): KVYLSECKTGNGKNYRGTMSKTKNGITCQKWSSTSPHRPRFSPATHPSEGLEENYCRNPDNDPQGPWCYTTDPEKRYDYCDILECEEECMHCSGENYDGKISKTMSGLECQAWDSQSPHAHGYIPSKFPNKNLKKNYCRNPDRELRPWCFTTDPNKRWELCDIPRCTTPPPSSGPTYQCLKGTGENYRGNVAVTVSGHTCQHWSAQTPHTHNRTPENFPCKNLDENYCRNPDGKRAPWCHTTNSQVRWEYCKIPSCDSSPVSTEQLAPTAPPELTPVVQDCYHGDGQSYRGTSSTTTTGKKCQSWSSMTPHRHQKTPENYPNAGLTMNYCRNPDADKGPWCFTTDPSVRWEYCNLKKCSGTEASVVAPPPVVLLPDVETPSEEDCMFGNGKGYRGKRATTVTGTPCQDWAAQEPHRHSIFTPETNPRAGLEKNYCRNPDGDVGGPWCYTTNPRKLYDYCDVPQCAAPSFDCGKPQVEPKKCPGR
T5 sequence (P00742 235-488 limits assumed): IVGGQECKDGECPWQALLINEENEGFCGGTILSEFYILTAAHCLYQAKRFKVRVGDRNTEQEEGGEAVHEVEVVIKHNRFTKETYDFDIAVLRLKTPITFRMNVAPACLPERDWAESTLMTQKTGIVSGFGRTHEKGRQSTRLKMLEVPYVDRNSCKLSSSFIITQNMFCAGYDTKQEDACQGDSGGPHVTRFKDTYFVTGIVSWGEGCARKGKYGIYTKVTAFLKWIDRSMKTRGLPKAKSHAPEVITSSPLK
T5 sequence (P00742 41-179 partner limits assumed): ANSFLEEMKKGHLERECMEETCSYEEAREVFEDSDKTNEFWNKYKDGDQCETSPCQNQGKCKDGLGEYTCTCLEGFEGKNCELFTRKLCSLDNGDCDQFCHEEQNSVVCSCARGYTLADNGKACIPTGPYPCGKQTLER

As to “1-(R)-{[Ac-(R)Phe-(N-cyclopentyl)Gly]amino}-4-(1N-methylguanidino)butylboronic Acid Acetate [Example 8]”, in [1], the “CTT2 (concentration which doubles the thrombin time)” value (shortened to “CTT2”) came to 0.30 µM. The “CTP2 (concentration which doubles the prothrombin time)” value (“CTP2” below) in [2] is 3.06 µM. For the same compound, the “selectivity for thrombin versus other serine proteases, compared with DUP 714” value (from here on “selectivity”) on human thrombin (comparison of CI50 values) is reported as “much more selective inhibitors of thrombin than DUP 714”. The pIC50 on human thrombin was 9.13; at purified human plasmin, less than 4.48; in [3] it was 6.40; on purified human urokinase it was less than 4.48; in data set [4], less than 3.48; in data set [5] it was 5.97. Besides, in data set [6], the pIC50 is 6.34.
As for `CC(=O)N[C@H](Cc1ccccc1)C(=O)N1CCC[C@H]1C(=O)N[C@@H](CCCN=C(N)N)B(O)O` [DUP 714, Ac-(D)Phe-Pro-Arg-boronic acid, reference compound], the “CTT2” value in [1] is 0.18 µM. Besides, the “CTP2” value in data set [2] worked out at 2.63 µM. The pIC50 is 7.62 at purified human plasmin; 8.28 in data set [3]; 7.66 on purified human urokinase; 7.09 in data set [4]; 8.17 in data set [5]; 7.82 in data set [6]. In [7] (0.25 mg/kg i.v.), the “increase in the ACT” value is recorded as “comparable with that obtained with Example 2 in a dosage of 0.5 mg/kg”. In the data set with platelets [8], this compound returned a thrombopenia of 20%.
For `CC(=O)N[C@H](Cc1ccccc1)C(=O)N(CC(=O)N[C@@H](CCCSC(=N)N)B(O)O)C1CCCC1.CC(=O)O` [Example 2, 1-(R )-{[Ac-(R)Phe-(N-cyclopentyl)Gly]amino}-4-(isothioureido)butylboronic Acid Acetate], the “CTT2” value in [1] was determined as 0.20 µM. Besides, the “CTP2” value in data set [2] worked out at 2.29 µM. Further, the “selectivity” value at human thrombin (comparison of CI50 values) is “much more selective inhibitors of thrombin than DUP 714”. On human thrombin (comparison of CI50 values), the “thrombin inhibition compared with DUP 714” value is on record as “as powerfully as DUP 7 14”. Also, the pIC50 at human thrombin was 9.23; on purified human plasmin, 5.98; in data set [3], 6.97; at purified human urokinase it was 5.60; in [4], less than 4.00; in [5], 6.79. For the same compound, the pIC50 in data set [6] is 6.23. In addition, the “index of increase in the coagulation time (ACT)” value in data set [9] (1.5 minutes) worked out at 2.6; in data set [9] (5 minutes), 1.8; in data set [9] (15 minutes), 1.2; in [9] (30 minutes), 1.2; in [9] (60 minutes), 1.1. Also, the ACT increase index was 9.6 in [7] (1.5 minutes); 3.6 in data set [7] (5 minutes); 1.9 in data set [7] (15 minutes); 1.4 in data set [7] (30 minutes); 1.1 in [7] (60 minutes). For the same compound, the “duration of activity (TT increase)” value in the data set with thrombin time was 4 h. Also, the “increase in the TT” value in the data set on thrombin time (0.5 hours) stood at 1.1; in the data set on thrombin time (1 hour), 1.6; in the data set on thrombin time (2 hours), 1.5; in the data set on thrombin time (4 hours), 1.1. Besides, the “modification of the number of platelets” value in the data set with platelets [10] is recorded as “without modification of the number of platelets”.
Consider `CC(=O)NC(Cc1ccccc1)C(=O)N(CC(=O)N[C@@H](CCCSC(=N)N)B(O)O)C1CCCCC1.CC(=O)O` (stereo partly drawn) [Example 4, 1-(R)-{[Ac-(R,S)Phe-(N-cyclohexyl)Gly]amino}-4-(isothioureido) butylboronic Acid Acetate], for which the “CTT2” value in data set [1] came out at 0.34 µM. In addition, the “CTP2” value in data set [2] came to 2.44 µM.
As for `CC(=O)N[C@H](Cc1ccccc1)C(=O)N(CC(=O)N[C@@H](CCCSC(=N)N)B(O)O)C1CCCCC1.CC(=O)O` [Example 6, 1-(R)-{[Ac-(R)Phe-(N-cyclohexyl)Gly]amino}-4-(isothioureido)butylboronic Acid Acetate], the “CTT2” value in data set [1] is 0.29 µM. For the same compound, the “CTP2” value in data set [2] came out at 2.92 µM. Moreover, at human thrombin (comparison of CI50 values), the “selectivity” value is reported as “much more selective inhibitors of thrombin than DUP 714”. The pIC50 on human thrombin is 8.76; on purified human plasmin, 5.90; in [3], 7.04; on purified human urokinase, 5.82; in [4] it was 4.96; in data set [5], 6.74. Also, the pIC50 in [6] is 6.33.

The values above are taken from patent US5585360A, “Peptide compounds derived from boronic acid” (Adir et Compagnie, priority 1994, dated 1996).
